Measurements taken from patent publication US20110294728A1, “Antiviral Polypeptides” (priority 2008, published 2011).
Where “and” joins values, the source holds several entries; their conditions need not be identical. Equal values may be shown once. Read-outs that look alike come from different tables or passages of the source. Where no end group is shown, it is not given here.

Tests used:
[1] = tested on: HIV-1-LAI strain
Protocol: The anti-HIV activities of the peptides were assayed according to the methods described in Roisin et al. (2004). Phytohemagglutinin-P(PHA-P)-activated peripheral blood mononuclear cells (PBMC) treated by increasing concentrations of peptide (from 100 to 0.1 nM), one hour later, were infected with hundred 50% tissue culture infectious doses (TCID50) per 100,000 cells of the HIV-1-LAI strain (Barre-Sinoussi et al., 1983). This virus was amplified in vitro on PHA-P-activated PBMC. Viral stock was titrated using PHA-P-activated PBMC, and 50% TCID50 were calculated using Kärber's formula (Kärber, 1931). Samples were maintained throughout the culture, and cell supernatants were collected at day 7 post-infection and stored at −20° C. Viral replication was measured by quantifying reverse transcriptase (RT) activity in cell culture supernatants. In parallel, cytotoxicity of the compounds was evaluated in uninfected PHA-P-activated PBMC by colorimetric 3-(4-5 dimethylthiazol-2-yl)2,5diphenyl tetrazolium bromite (MTT) assay on day 7 (as described in Mossmann, 1983). Experiments were performed in triplicate and repeated with another blood donor. Data analyses were performed using SofiMax® Pro 4.6 microcomputer software: percent of inhibition of RT activity or of cell viability were plotted vs concentration and fitted with quadratic curves; 50% effective doses (ED50) and cytotoxic doses (CD50) were calculated.
In order to avoid any limitation due to the poor ability of peptides to cross cellular membranes, they were associated to the peptide-based nanoparticle delivery system Pep-1 (SEQ ID NO: 29), at a 1/10 molar ratio.

[2] = tested on: HIV-1 strain RF; conditions: strain RF (RP in Table 5); peptide with Pep-1 or Pep-3 at ratio 20/1; combinations with Pep-3
[3] = in vivo; conditions: for half-life: female, BALB/c, mouse, in vivo, iv, 10 μg; for tissues with peptide accumulation: formulated with CADY-2c/CADY-1S1, after 24 hr; for time of optimal distribution: formulated with CADY-2c/CADY-1S1, intravenous; for distribution of naked peptide: intravenous, after 15 min
Protocol: In order to evaluate the potency of the peptides p27 (SEQ ID NO: 25) and p16 (SEQ ID NO: 19) in vivo, it was analyzed their ability to be systemically administrated by intravenous injection in mice (BALB/c; 6 to 8 week-old female mice). Peptides were either radio-labeled at the N-terminal amino acid or fluorescently labeled with Alexa® Fluo700 probe. […] Particles were injected intravenously (100 μl) and kinetic of peptide distribution were followed by fluorescence live imaging. 24 hr after injection, the level of peptides in the different tissues were quantified by fluorescence and radioactivity.

[4] = tested on: efavirenz-resistance HIV strain harbouring K103N and N341V mutations on reverse transcriptase; assay type: in vivo, Hu-PBL-SCID transgenic mice; conditions: EFZ resistance strain; 20 mg/kg/day; peptides formulated with CADY-2c/CADY-1S1
Protocol: The potency of the peptides p27 (SEQ ID NO: 25) and p16 (SEQ ID NO: 19) was assessed in vivo following intravenous challenge of Hu-PBL-SCID transgenic mice (in which human (hu) peripheral blood leukocytes (PBLs) from healthy Epstein-Barr virus (EBV)-seropositive donors are injected into severe combined immunodeficiency (SCID) mice; Mosier et al., 1988). The mice (6 to 8 week-old male mice, 5 animals per group) were infected with wild type HIV 1 virus or efavirenz-resistance HIV strain harbouring K103N and N341V mutations on reverse transcriptase. Infected mice were treated with peptides formulated with the peptide vector CADY-2c (see above) in water at a ratio 1/20, and then particles were coated with 3% of CADY-1S1 (see above), as described in International Application WO 2007/069090. Particles were injected intravenously (100 μl) every 2 days for 1 week, then HIV-1 copy were quantified by quantitative PCR. Efavirenz (a non-nucleoside reverse transcriptase inhibitor; EFZ) was used a positive drug control.

[5] = target: IN/LEDGF complex (Human immunodeficiency virus type 1 group M subtype B, UniProt P04585); assay: Dissociation of IN/LEDGF complex (AlphaScreen, immunoprecipitation); assay type: biochemical
Protocol: Dissociation of IN/LEDGF complex was measured by fluorescence resonance energy transfer (AlphaScreen® technology) and immunoprecipitation experiments: • Amplified Luminescent Proximity Homogeneous Assay (ALPHA): when the proteins (IN and LEDGF), linked to acceptor and donor beads, interact together (i.e., are into close proximity), a photosignal (a high amplified signal with output in the 520-560 nm range) is detected; when the proteins are not in close proximity, the reactive oxygen decays and there is no detectable signal generated; • immunoprecipitation (IP) was performed using polyclonal anti LEDGF antibodies (purchased from Santa Cruz Biotechnology, USA) and polyclonal HA antibodies (purchased from Eurogentec, Belgium). Cell line expression HA-tagged integrase was using for the experiment in the presence of increasing concentrations of peptide inhibitors.

[6] = tested on: HIV-1 74V; assay type: cell-based; conditions: resistant to ddI and ddC
[7] = tested on: HIV-1 215Y; assay type: cell-based; conditions: AZT-resistant
[8] = read-out: EC50 HIV-1 lai, Table 10

Row | Sequence | EC50 [1, 8] [nM] | IC50 [2] [nM] | half-life [3] [min] | tissues with peptide accumulation [3] | time of optimal distribution [3] [h] | distribution of naked peptide [3] | reduction of viral propagation [4] [%] | EC50 [5] [nM] | EC50 ([1]; PBMC, HIV-1 LAI, day 7, /Pep-1 = associated to Pep-1 at 1/10 molar ratio) [nM] | IC50 ([1]; read-out: IC50, antiviral activity, text b123, peptide with Pep-1) [nM] | IC50 [6] | IC50 [7]
1 | GTKWLTEVWPL [Peptide P16] | 5.9 | 10.9 | < 60 | liver, brain, stomach, kidney, lung | 5 | accumulated mainly in the bladder | 58 | 800 |  |  |  | 
2 | GTKWLTEWIPLTAE [Peptide P27] | 0.21 | 1.5 | < 60 | liver, brain, stomach, kidney, lung | 5 | accumulated mainly in the bladder | 72 |  | > 1000 | < 0.32 | 3.8 nM and 4.9 nM | 2.7 nM and 3.9 nM
